Measurements published in PMC5241874.

Target: T1, αγ heterodimer of human NAD-IDH (IDH3) (Homo sapiens, UniProt P50213+P51553)
T1 construct: gene IDH3A; alpha and gamma co-expressed in E. coli BL21(DE3) from pQlinkN; gamma C-terminal TEV-His6, His6 cleaved by TEV; 80 kDa heterodimer (dimer of heterodimers at high concentration)
T1 sequence (P50213 28-366): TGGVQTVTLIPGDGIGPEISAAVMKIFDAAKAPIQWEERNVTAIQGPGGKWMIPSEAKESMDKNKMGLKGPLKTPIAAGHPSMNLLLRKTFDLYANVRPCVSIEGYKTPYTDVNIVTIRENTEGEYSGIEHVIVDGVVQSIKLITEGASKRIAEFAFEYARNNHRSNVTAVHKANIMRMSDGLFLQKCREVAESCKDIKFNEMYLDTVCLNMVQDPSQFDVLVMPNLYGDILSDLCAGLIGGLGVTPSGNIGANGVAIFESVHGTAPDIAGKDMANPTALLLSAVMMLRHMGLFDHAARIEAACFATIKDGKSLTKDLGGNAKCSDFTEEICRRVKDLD
T1 sequence (P51553 40-393): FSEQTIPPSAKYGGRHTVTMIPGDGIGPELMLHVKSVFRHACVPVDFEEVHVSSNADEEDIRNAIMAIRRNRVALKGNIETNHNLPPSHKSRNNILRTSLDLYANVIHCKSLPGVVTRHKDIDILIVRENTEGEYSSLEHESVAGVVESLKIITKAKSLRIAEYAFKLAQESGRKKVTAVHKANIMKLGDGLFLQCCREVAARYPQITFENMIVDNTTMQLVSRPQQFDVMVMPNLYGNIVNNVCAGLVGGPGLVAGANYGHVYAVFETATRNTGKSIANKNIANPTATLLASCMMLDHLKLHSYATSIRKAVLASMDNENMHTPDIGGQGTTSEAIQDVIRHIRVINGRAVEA
Experiment: crystal structure, […] Å
Format: binding
Conditions: allosteric citrate subsite in gamma subunit (second site), with Mg2+ and ADP; pH 7.5

## O=C(O)C[C@H](C(=O)O)[C@@H](O)C(=O)O [ICT]
  crystal structure, 2.8 Å: In this structure, ICT binds to the CIT-binding subsite with a similar orientation as CIT
